# Where “and” joins values, the source holds several entries; their conditions need not be identical. Identical values can stand only once.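 Each compound was tested at five concentrations against cells in 96-well plates for 48 hours. Here, GI50 denotes the concentration required for 50% inhibition of growth. At the TGI there is no net growth.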 Where a SMILES comes first, the peptide text is derived from it. The star is where a group is joined. Boc = CC(C)(C)OC(=O)*; OBn = c1ccc(CO*)cc1
# How the values were obtained:
# Test in all cases: inhibition of tumour cell growth, NCI panel, 48 h
# [1] = test system: BT-549 breast
# [2] = test system: EKVX NSCLC
# [3] = test system: HCT-116 colon
# [4] = test system: HL-60(TB) leukemia
# [5] = test system: HS 578T breast
# [6] = test system: HT29 colon
# [7] = test system: M14 melanoma
# [8] = test system: NCI-H460 lung
# [9] = test system: SK-MEL-28 melanoma
# [10] = test system: HCC-2998 colon
Structure (SMILES),GI50 [1] [µg/mL],TGI [1],GI50 [2] [µg/mL],TGI [2],GI50 [3] [µg/mL],TGI [3],GI50 [4] [µg/mL],TGI [4],GI50 [5] [µg/mL],TGI [5],GI50 [6],TGI [6],GI50 [7] [µg/mL],TGI [7],GI50 [8] [µg/mL],TGI [8],GI50 [9] [µg/mL],TGI [9],TGI [10] [µM]
COc1cc(/C=C2/N=C(c3ccccc3)N(C3=NNC4(C(=O)N3)c3ccccc3-c3ccccc34)NC2=O)ccc1O,25.9,47.5 µg/mL,15,15 µg/mL,26.1,47.3 µg/mL,51.2,> 150 µg/mL,19.8,42.5 µg/mL,27.7 µg/mL,49.1 µg/mL,34.7,105 µg/mL,28,49.1 µg/mL,31.3,60.4 µg/mL,–
COc1ccc2c(c1)/c(=C/c1ccc(N(C)C)cc1)c1cc(-c3ccccc3)[n+](C)n12,–,–,–,1.42 µM,–,2.59 µM,–,–,–,0.44 µM,0.0753 µM,0.566 µM and 0.982 µM,–,1.36 µM,–,–,–,2.31 µM,–
COc1cc(/C=C2\CCC(C)C3=C2NC(=S)NC3c2cc(OC)c(OC)c(OC)c2)cc(OC)c1OC (stereo unspecified),–,–,–,> 100 µM,–,> 100 µM,–,39.7 µM,–,> 100 µM,–,> 100 µM,–,> 100 µM,–,–,–,> 100 µM,–
COc1cc(C2SCC(=O)N2c2ccc(Oc3ccc(Cl)cc3)c(Cl)c2)cc(OC)c1OC (stereo unspecified),–,32.5 µM,–,56.2 µM,–,35.5 µM,–,–,–,40.7 µM,–,33.7 µM,–,83.1 µM,–,> 100 µM,–,35 µM,> 100
COc1cc2c(cc1OC)-c1c3c(cc4c1[C@@H](C2)N(C)CC4)OCO3,–,–,–,37.3 µM,–,36.6 µM,–,29.9 µM,–,–,–,28.8 µM,–,–,–,14.3 µM,–,24.9 µM,23.8
COc1ccc(OC)c2c1C1CCC(=O)N1CN2C(C)=O (stereo unspecified),–,–,–,> 100 µM,–,> 100 µM,–,> 100 µM,–,> 100 µM,–,> 100 µM,–,> 100 µM,–,> 100 µM,–,> 100 µM,> 100
COc1ccc(C2C(C#N)=C(S)N(C3OC(CO)C(O)C(O)C3O)C(c3ccccc3)=C2C(C)=O)cc1 (stereo unspecified),–,> 100 µM,–,–,–,> 100 µM,–,> 100 µM,–,> 100 µM,–,> 100 µM,–,> 100 µM,–,> 100 µM,–,> 100 µM,> 100
COC(=O)C1(Cc2ccccc2)Cc2ccccc2C1,–,–,–,89.4 µM,–,49.8 µM,–,45.8 µM,–,> 100 µM,–,41.7 µM,–,34.8 µM,–,84.9 µM,–,> 100 µM,98.2
C[n+]1c2ccccc2c(C(=O)Nc2ccc(S(=O)(=O)N=C(N)N)cc2)c2ccccc21,–,–,–,> 100 µM,–,> 100 µM,–,–,–,> 100 µM,–,> 100 µM,–,> 100 µM,–,> 100 µM,–,> 100 µM,> 100
O=c1[nH]nc(Cc2ccccc2)n1-n1cnnc1,–,> 100 µM,–,> 100 µM,–,> 100 µM,–,–,–,–,–,> 100 µM,–,> 100 µM,–,–,–,> 100 µM,> 100
CCCCOCn1c(=O)[nH]c(=O)c2cc(Br)ccc21,–,–,–,> 100 µM,–,> 100 µM,–,> 100 µM,–,–,–,> 100 µM,–,> 100 µM,–,–,–,> 100 µM,> 100
CCc1ccc2c(c1)CC1(C2)Cc2cc3c(cc2C1)C(=O)CC3 (stereo unspecified),–,–,–,> 100 µM,–,29.9 µM,–,15.6 µM,–,> 100 µM,–,23.9 µM,–,> 100 µM,–,–,–,–,47.1
COC(=O)[C@@H]1C[C@@]2(C3C=CN(C(=O)C(F)(F)F)C=C3)c3ccccc3N(C(=O)C(F)(F)F)[C@H]2N1C(=O)OC,–,> 100 µM,–,> 100 µM,–,> 100 µM,–,> 100 µM,–,> 100 µM,–,–,–,> 100 µM,–,> 100 µM,–,> 100 µM,> 100
CC(C)(C)OC(=O)NC(Cc1ccccc1)C(=O)NC(Cc1ccccc1)C(=O)NCC(=O)OCc1ccccc1 (stereo not drawn) (Boc-Phe-Phe-Gly-OBn; configuration not given here),–,–,–,> 100 µM,–,40.2 µM,–,57.6 µM,–,–,–,40.4 µM,–,62.7 µM,–,49.9 µM,–,42.7 µM,29.8
c1ccc2c(Cc3nnc4sc(SSc5nn6c(Cc7c[nH]c8ccccc78)nnc6s5)nn34)c[nH]c2c1,–,–,–,> 100 µM,–,29.4 µM,–,75.7 µM,–,56.8 µM,–,44.4 µM,–,37.2 µM,–,89.3 µM,–,> 100 µM,30.4
CN(C)CCCOCCn1c2c(c3ccccc31)CCCC2,–,–,–,57.8 µM,–,28.8 µM,–,20.7 µM,–,51.6 µM,–,28.5 µM,–,32.1 µM,–,28.9 µM,–,30.2 µM,28.4
NCCCCNCCCNC(=O)c1nc(-c2csc(CCN)n2)sc1Cl,–,–,–,> 100 µM,–,> 100 µM,–,> 100 µM,–,–,–,> 100 µM,–,> 100 µM,–,> 100 µM,–,> 100 µM,> 100
O=c1[nH]c(N/N=C\C(O)C(O)C(O)CO)nc2ccccc12 (stereo unspecified),–,> 100 µM,–,> 100 µM,–,> 100 µM,–,> 100 µM,–,> 100 µM,–,> 100 µM,–,> 100 µM,–,> 100 µM,–,> 100 µM,–
